Molecules are shown by their SMILES. pIC50: −log10 of the molar value.

Chain of Granzyme B (human lymphocytes) (P10144 21-247): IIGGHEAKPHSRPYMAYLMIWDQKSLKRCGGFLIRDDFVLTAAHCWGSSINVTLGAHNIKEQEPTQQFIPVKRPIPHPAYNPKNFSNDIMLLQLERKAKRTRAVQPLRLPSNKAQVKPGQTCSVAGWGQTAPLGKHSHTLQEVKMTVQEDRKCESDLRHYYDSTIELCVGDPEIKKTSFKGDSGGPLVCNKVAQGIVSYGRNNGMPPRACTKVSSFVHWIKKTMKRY

The target in the test is Granzyme B (human lymphocytes) (Homo sapiens (Human), UniProt P10144). Kind of test: human Granzyme B biochemical assay. Conditions: Granzyme B (human lymphocytes) 5 nM, substrate Ac-IETD-AFC 200 μM, Cpd incubation with enzyme 30 mins, 22° C., read time 60 mins; read-out: IC50. Put shortly:
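Fluorogenic Ac-IETD-AFC cleavage (Ex 400/Em 505 nm) read after 60 min at 22 °C, following 30 min, 22 °C enzyme–compound pre-incubation. Working stocks: enzyme 10 nM in 0.1% BSA buffer, substrate 800 µM, compound 8 points, 3.16-fold from 40 µM. Controls set 0% (DMSO) and 100% (standard inhibitor) inhibition; IC50 fitted.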
Turning to `CC[C@H](C)[C@H](NC(=O)COCCF)C(=O)N[C@H]1CCc2cccc3c2N(C1=O)[C@H](C(=O)NCc1ccsc1)C3` [Compound C109], the pIC50 is under 5.30.
The value for `CC[C@H](C)[C@H](NC(=O)COCCF)C(=O)N[C@H]1CCc2cccc3c2N(C1=O)[C@H](C(=O)NCc1cnc[nH]1)C3` [Compound C110, (2S,5S)-5-{(2S,3S)-2-[2-(2-Fluoro-ethoxy)-acetylamino]-3-methyl-pentanoylamino}-4-oxo-1,2,4,5,6,7-hexahydro-azepino[3,2,1-hi]indole-2-carboxylic acid (3H-imidazol-4-ylmethyl)-amide] was under 5.30.
The value for `CC[C@H](C)[C@H](NC(=O)COCCF)C(=O)N[C@H]1CCc2cccc3c2N(C1=O)[C@H](C(=O)NCc1cnco1)C3` [Compound C111, (2S,5S)-5-{(2S,3S)-2-[2-(2-Fluoro-ethoxy)-acetylamino]-3-methyl-pentanoylamino}-4-oxo-1,2,4,5,6,7-hexahydro-azepino[3,2,1-hi]indole-2-carboxylic acid (oxazol-5-ylmethyl)-amide] was under 5.30; that for `CC[C@H](C)[C@H](NC(=O)COCCF)C(=O)N[C@H]1CCc2cccc3c2N(C1=O)[C@H](C(=O)NCc1cncs1)C3` [Compound C112, (2S,5S)-5-{(2S,3S)-2-[2-(2-Fluoro-ethoxy)-acetylamino]-3-methyl-pentanoylamino}-4-oxo-1,2,4,5,6,7-hexahydro-azepino[3,2,1-hi]indole-2-carboxylic acid (thiazol-5-ylmethyl)-amide] was under 5.30.
For `CC[C@H](C)[C@H](NC(=O)COCCF)C(=O)N[C@H]1CCc2cccc3c2N(C1=O)[C@H](C(=O)NCc1cocn1)C3` [Compound C114, (2S,5S)-5-{(2S,3S)-2-[2-(2-Fluoro-ethoxy)-acetylamino]-3-methyl-pentanoylamino}-4-oxo-1,2,4,5,6,7-hexahydro-azepino[3,2,1-hi]indole-2-carboxylic acid (oxazol-4-ylmethyl)-amide], the pIC50 is under 5.30.
As for `CC[C@H](C)[C@H](NC(=O)COCCF)C(=O)N[C@H]1CCc2cccc3c2N(C1=O)[C@H](C(=O)NCc1cscn1)C3` [Compound C115, (2S,5S)-5-{(2S,3S)-2-[2-(2-Fluoro-ethoxy)-acetylamino]-3-methyl-pentanoylamino}-4-oxo-1,2,4,5,6,7-hexahydro-azepino[3,2,1-hi]indole-2-carboxylic acid (thiazol-4-ylmethyl)-amide], the figure is under 5.30.
As for `CC[C@H](C)[C@H](NC(=O)COCCF)C(=O)N[C@H]1CCc2cccc3c2N(C1=O)[C@H](C(=O)NCc1cn[nH]c1)C3` [Compound C116], the figure is under 5.30; as for `CC[C@H](C)[C@H](NC(=O)COCCF)C(=O)N[C@H]1CCc2cccc3c2N(C1=O)[C@H](C(=O)NCc1cnoc1)C3` [Compound C117, (2S,5S)-5-{(2S,3S)-2-[2-(2-Fluoro-ethoxy)-acetylamino]-3-methyl-pentanoylamino}-4-oxo-1,2,4,5,6,7-hexahydro-azepino[3,2,1-hi]indole-2-carboxylic acid (isoxazol-4-ylmethyl)-amide], under 5.30.
With `CC[C@H](C)[C@H](NC(=O)COCCF)C(=O)N[C@H]1CCc2cccc3c2N(C1=O)[C@H](C(=O)NCc1cnsc1)C3` [Compound C118, (2S,5S)-5-{(2S,3S)-2-[2-(2-Fluoro-ethoxy)-acetylamino]-3-methyl-pentanoylamino}-4-oxo-1,2,4,5,6,7-hexahydro-azepino[3,2,1-hi]indole-2-carboxylic acid (isothiazol-4-ylmethyl)-amide], the pIC50 is under 5.30.
As for `CC[C@H](C)[C@H](NC(=O)COCCF)C(=O)N[C@H]1CCc2cccc3c2N(C1=O)[C@H](C(=O)NCc1nn[nH]n1)C3` [Compound C119, (2S,5S)-5-{(2S,3S)-2-[2-(2-Fluoro-ethoxy)-acetylamino]-3-methyl-pentanoylamino}-4-oxo-1,2,4,5,6,7-hexahydro-azepino[3,2,1-hi]indole-2-carboxylic acid (2H-tetrazol-5-ylmethyl)-amide], the figure is 6.52 to 9.00; as for `CC[C@H](C)[C@H](NC(=O)COCCF)C(=O)N[C@H]1CCc2cccc3c2N(C1=O)[C@H](C(=O)NCCc1cnn[nH]1)C3` [Compound C120, (2S,5S)-5-{(2S,3S)-2-[2-(2-Fluoro-ethoxy)-acetylamino]-3-methyl-pentanoylamino}-4-oxo-1,2,4,5,6,7-hexahydro-azepino[3,2,1-hi]indole-2-carboxylic acid [2-(3H-[1,2,3]triazol-4-yl)-ethyl]-amide], under 5.30; as for `CC[C@H](C)[C@H](NC(=O)COCCF)C(=O)N[C@H]1CCc2cccc3c2N(C1=O)[C@H](C(=O)NCc1ccccn1)C3` [Compound C121, (2S,5S)-5-{(2S,3S)-2-[2-(2-Fluoro-ethoxy)-acetylamino]-3-methyl-pentanoylamino}-4-oxo-1,2,4,5,6,7-hexahydro-azepino[3,2,1-hi]indole-2-carboxylic acid (pyridin-2-ylmethyl)-amide], under 5.30.
As to `CC[C@H](C)[C@H](NC(=O)COCCF)C(=O)N[C@H]1CCc2cccc3c2N(C1=O)[C@H](C(=O)NCc1cccnc1)C3` [Compound C122, (2S,5S)-5-{(2S,3S)-2-[2-(2-Fluoro-ethoxy)-acetylamino]-3-methyl-pentanoylamino}-4-oxo-1,2,4,5,6,7-hexahydro-azepino[3,2,1-hi]indole-2-carboxylic acid (pyridin-3-ylmethyl)-amide], the pIC50 was under 5.30.
As to `CC[C@H](C)[C@H](NC(=O)COCCF)C(=O)N[C@H]1CCc2cccc3c2N(C1=O)[C@H](C(=O)NCc1ccncc1)C3` [Compound C123, (2S,5S)-5-{(2S,3S)-2-[2-(2-Fluoro-ethoxy)-acetylamino]-3-methyl-pentanoylamino}-4-oxo-1,2,4,5,6,7-hexahydro-azepino[3,2,1-hi]indole-2-carboxylic acid (pyridin-4-ylmethyl)-amide], the pIC50 was under 5.30.
The value for `CC[C@H](C)[C@H](NC(=O)COCCF)C(=O)N[C@H]1CCc2cccc3c2N(C1=O)[C@H](C(=O)NCc1ccccc1C)C3` [Compound C127, (2S,5S)-5-{(2S,3S)-2-[2-(2-Fluoro-ethoxy)-acetylamino]-3-methyl-pentanoylamino}-4-oxo-1,2,4,5,6,7-hexahydro-azepino[3,2,1-hi]indole-2-carboxylic acid 2-methyl-benzylamide] was under 5.30.
The value for `CC[C@H](C)[C@H](NC(=O)COCCF)C(=O)N[C@H]1CCc2cccc3c2N(C1=O)[C@H](C(=O)NCc1cccc(C)c1)C3` [Compound C128, (2S,5S)-5-{(2S,3S)-2-[2-(2-Fluoro-ethoxy)-acetylamino]-3-methyl-pentanoylamino}-4-oxo-1,2,4,5,6,7-hexahydro-azepino[3,2,1-hi]indole-2-carboxylic acid 3-methyl-benzylamide] was under 5.30; that for `CC[C@H](C)[C@H](NC(=O)COCCF)C(=O)N[C@H]1CCc2cccc3c2N(C1=O)[C@H](C(=O)NCc1ccc(C)cc1)C3` [Compound C129, (2S,5S)-5-{(2S,3S)-2-[2-(2-Fluoro-ethoxy)-acetylamino]-3-methyl-pentanoylamino}-4-oxo-1,2,4,5,6,7-hexahydro-azepino[3,2,1-hi]indole-2-carboxylic acid 4-methyl-benzylamide] was under 5.30; that for `CC[C@H](C)[C@H](NC(=O)COCCF)C(=O)N[C@H]1CCc2cccc3c2N(C1=O)[C@H](C(=O)NCc1ccccc1Cl)C3` [Compound C130, (2S,5S)-5-{(2S,3S)-2-[2-(2-Fluoro-ethoxy)-acetylamino]-3-methyl-pentanoylamino}-4-oxo-1,2,4,5,6,7-hexahydro-azepino[3,2,1-hi]indole-2-carboxylic acid 2-chloro-benzylamide] was under 5.30.
As for `CC[C@H](C)[C@H](NC(=O)COCCF)C(=O)N[C@H]1CCc2cccc3c2N(C1=O)[C@H](C(=O)NCc1cccc(Cl)c1)C3` [Compound C131, (2S,5S)-5-{(2S,3S)-2-[2-(2-Fluoro-ethoxy)-acetylamino]-3-methyl-pentanoylamino}-4-oxo-1,2,4,5,6,7-hexahydro-azepino[3,2,1-hi]indole-2-carboxylic acid 3-chloro-benzylamide], the figure is under 5.30.
Turning to `CC[C@H](C)[C@H](NC(=O)COCCF)C(=O)N[C@H]1CCc2cccc3c2N(C1=O)[C@H](C(=O)NCc1ccc(Cl)cc1)C3` [Compound C132, (2S,5S)-5-{(2S,3S)-2-[2-(2-Fluoro-ethoxy)-acetylamino]-3-methyl-pentanoylamino}-4-oxo-1,2,4,5,6,7-hexahydro-azepino[3,2,1-hi]indole-2-carboxylic acid 4-chloro-benzylamide], the pIC50 was under 5.30.
On to `CC[C@H](C)[C@H](NC(=O)COCCF)C(=O)N[C@H]1CCc2cccc3c2N(C1=O)[C@H](C(=O)NCc1cc(Cl)cc(Cl)c1)C3` [Compound C133, (2S,5S)-5-{(2S,3S)-2-[2-(2-Fluoro-ethoxy)-acetylamino]-3-methyl-pentanoylamino}-4-oxo-1,2,4,5,6,7-hexahydro-azepino[3,2,1-hi]indole-2-carboxylic acid 3,5-dichloro-benzylamide], for which the pIC50 is under 5.30.
The value for `CC[C@H](C)[C@H](NC(=O)COCCF)C(=O)N[C@H]1CNc2cccc3c2N(C1=O)[C@H](C(=O)NCc1c[nH]nn1)C3` [Compound C143, (3S,6S)-3-{(2S,3S)-2-[2-(2-Fluoro-ethoxy)-acetylamino]-3-methyl-pentanoylamino}-4-oxo-1,2,3,4,6,7-hexahydro-[1,4]diazepino[3,2,1-hi]indole-6-carboxylic acid (1H-[1,2,3]triazol-4-ylmethyl)-amide] was 6.52 to 9.00.

The values are drawn from patent US11667645B2, “Granzyme B directed imaging and therapy” (CytoSite Biopharma Inc., priority 2018, dated 2023).
